PMC8704606, “The Artemiside-Artemisox-Artemisone-M1 Tetrad: Efficacies against Blood Stage P. falciparum Parasites, DMPK Properties, and the Case for Artemiside” (Pharmaceutics, 2021)
Like-named read-outs stand apart in the source and are kept apart here.

How the values were obtained:
Toxoplasma gondii (Tg) [1] = system: Toxoplasma gondii (Tg); set-up: method as in PMID 19635951; details: read-out: EC50 against Tg in vitro; cited from earlier work
[2] = system: early-stage (EG) Pf NF54 gametocytes; set-up: method as in PMID 29866868; details: early-stage gametocytes >95% stages II-III; 48 h incubation; ± SEM; cited from earlier work
[3] = system: asexual blood stages of Pf W2 (drug resistant); set-up: method as in PMID 29866868, PMID 31998692; details: cited from earlier work
P. falciparum W2 = system: P. falciparum W2; set-up: method as in ref S3; details: [3H]-hypoxanthine assay; ref S3; cited from earlier work
HepG2 = details: ref S3, cited from earlier work
[4] = system: type II tachyzoites (PRU-Luc-GFP); details: sc 10 mg/kg/d for 8 days; cited from earlier work
[5] = cited from earlier work
Toxoplasma gondii (Tg) [6] = system: Toxoplasma gondii (Tg); set-up: method as in PMID 19635951; details: IFN-γ−/− female mice, 10 mg/kg/d for 8 days after cessation of sulfadiazine; cited from earlier work
P. berghei sporozoites = details: cited from earlier work
[7] = Cytotoxicity (LDH assay) against HepG2 cells; format: cell-based; details: human, HepG2 cells (hepatocellular carcinoma)
Procedure: Cytotoxicity against mammalian hepatocellular carcinoma cells (HepG2 cells) was determined using the lactate dehydrogenase assay (LDH, Biovision Inc., Milpitas, CA, USA). […] Compound working solutions were prepared from 10 mM stock solutions (100% DMSO) in complete DMEM to a final DMSO (Sigma-Aldrich) conc. of <0.1% (vol/vol). […] Data analysis was performed using GraphPad Prism (version 6) software.

[8] = Pharmacokinetics and metabolism after iv and po administration; format: in vivo; details: for half-life: mean ± SD, read-out: t½ (converted); for MRT last: read-out: MRT0-last; for AUC(0-t): up to 7 h
Procedure: The plasma concentration-time profiles of the parent compounds and metabolites after administration iv and po to male C57/BL6 mice are presented in Figure 2, Figure 3 and Figure 4. Artemiside was quantifiable up to 24 h in all mice dosed iv and up to 7 h po (lower limit of quantitation LLOQ = 1.6 ng/mL or 0.004 μM) (Figure 2). […] For both artemiside and artemisox, the metabolite artemisone was quantifiable up to 3 h in both the po and iv groups (Figure 2 and Figure 3). Thereby it is confirmed that artemiside is rapidly converted via artemisox into artemisone. Artemisone itself was quantifiable up to three hours post dose (Figure 4). The mean circulating concentrations for the compounds and their metabolites are presented in Table S3a–f in the Supplementary Material 1. The metabolite M1 was also detected upon administration of artemiside, artemisox, and artemisone, but it was not quantified here; chromatograms indicating the presence of M1 are illustrated in Figure S3a–c in the Supplementary Material 1. In addition, the plasma concentration-time curves for artemiside and its metabolites artemisone and M1 following iv and po dosing in the same murine model are presented and discussed in detail elsewhere (cf. Figure 4 in reference).
All work was conducted with prior approval of the animal ethics committee of the University of Cape Town in accordance with the South African National Standards for the Care and Use of Animals for Scientific Purposes and guidelines from the South African Department of Health. The requirements and methods for the pharmacokinetics in vivo involving po and iv drug administration, sample extraction, analyses of samples by LC-MS/MS, and data analyses are described elsewhere. For the animal experiments and formulations, the compounds were dissolved in a 10:60:30 mixture of N,N-dimethylacetamide-polypropylene glycol-polyethylene glycol for intravenous dosing (iv) at 5 mg/kg. For the oral dose (po), compounds were individually dosed as a suspension in 0.5% (w/v) hydroxypropylmethylcellulose in water with 0.2% Tween80 at 50 mg/kg to male C57/BL6 mice (n = 3 for each group). For PK sampling, blood samples were collected at predetermined times (0.08, 0.25, 0.5, 1, 3, 5, 7, and 24 h) for both po and iv dosing via tail bleeding into heparinized tubes, centrifuged, and the plasma samples were stored at −80 °C until extraction. For preparation of samples, the frozen plasma samples were thawed and 15 μL was extracted by liquid–liquid extraction using a universal buffer (pH8) containing 10 ng/mL of the internal standard and ethyl acetate, and the extract was vortexed and centrifuged. Calibration standards and quality controls were extracted following the same procedure. Supernatants were dried down, reconstituted, and injected onto the column for LC-MS/MS analysis using an AB SCIEX 5500 QTRAP instrument coupled to an Agilent 1260 HPLC detection system as previously described.

[9] = male, C57/BL6, mouse, plasma, iv 5 mg/kg, parent drug
[10] = male, C57/BL6, mouse, plasma, po 50 mg/kg, parent drug

## C[C@H]1[C@H](N2CCSCC2)O[C@@H]2O[C@@]3(C)CC[C@H]4[C@H](C)CC[C@@H]1[C@@]24OO3 [Artemiside 5, Artemiside]
Toxoplasma gondii (Tg) [1]
  EC50: 108 nM
[2]
  IC50: 16.4 ± 1 nM
[3]; asexual blood stage Pf W2, multidrug resistant, SYBR Green I, ± SEM
  IC50: 1.75 ± 0.27 nM
[3]
  RI = IC50 W2/IC50 NF54: 1.58
P. falciparum W2
  IC50: 2.21 nM
  IC90: 4.28 nM
HepG2; read-out: Cytotoxicity EC50 HepG2
  EC50: > 25000 nM
HepG2
  SI = EC50 HepG2/IC50 P. berghei sporozoites: > 308
[4]
  mice surviving the infection, acute phase: 60%
[5]; 10 mg/kg/d for 14 days by gavage in sesame oil
  neurotoxicity in vivo, effects observed: no effects were observed
[5]; 50 mg/kg/d for 14 days by gavage in sesame oil
  neurotoxicity in vivo, effects observed: neurotoxic sequelae including body weight loss, reduced motility, uncoordinated gait, and piloerection
Toxoplasma gondii (Tg) [6]
  mice with prolonged survival, reactivation stage: 80%
P. berghei sporozoites; at 5 µM, ref S3
  Maximum inhibition % P. berghei sporozoites: 99.05±1.34%
P. berghei sporozoites; luciferase-expressing P. berghei ANKA GFP-Luc-SMcon sporozoites in HepG2 cells, 48 h, ± SD, ref S3 (7)
  IC50: 81.3 nM
[7]
  IC50 at 24 h: > 50000 nM
[8]; 24 h after po 50 mg/kg artemiside 5
  Mean po circulating concentration: blq
[8]; iv group, parent drug, LLOQ 1.6 ng/mL or 0.004 μM for artemiside
  quantifiable/detectable in plasma up to: up to 24 h
[8]; male, C57/BL6, mouse, plasma, iv, 5 mg/kg, 0.08 h after iv 5 mg/kg artemiside 5, read-out: Mean iv circulating concentration
  concentration at 0.08 h: 6240 nM
[8]; male, C57/BL6, mouse, plasma, iv, 5 mg/kg, 0.25 h after iv 5 mg/kg artemiside 5, read-out: Mean iv circulating concentration
  concentration at 0.25 h: 3560 nM
[8]; male, C57/BL6, mouse, plasma, iv, 5 mg/kg, 0.5 h after iv 5 mg/kg artemiside 5, read-out: Mean iv circulating concentration
  concentration at 0.5 h: 1710 nM
[8]; male, C57/BL6, mouse, plasma, iv, 5 mg/kg, 1 h after iv 5 mg/kg artemiside 5, read-out: Mean iv circulating concentration
  concentration at 1 h: 930 nM
[8]; male, C57/BL6, mouse, plasma, iv, 5 mg/kg, 3 h after iv 5 mg/kg artemiside 5, read-out: Mean iv circulating concentration
  concentration at 3 h: 180 nM
[8]; male, C57/BL6, mouse, plasma, iv, 5 mg/kg, 5 h after iv 5 mg/kg artemiside 5, read-out: Mean iv circulating concentration
  concentration at 5 h: 86 nM
[8]; male, C57/BL6, mouse, plasma, iv, 5 mg/kg, 7 h after iv 5 mg/kg artemiside 5, read-out: Mean iv circulating concentration
  concentration at 7 h: 37 nM
[8]; male, C57/BL6, mouse, plasma, iv, 5 mg/kg, 24 h after iv 5 mg/kg artemiside 5, read-out: Mean iv circulating concentration
  concentration at 24 h: 8 nM
[8]; male, C57/BL6, mouse, plasma, iv, 5 mg/kg, iv 5 mg/kg, parent drug
  half-life: 1.2 ± 0.1 h
[8]; male, C57/BL6, mouse, plasma, po, 50 mg/kg, 0.08 h after po 50 mg/kg artemiside 5, read-out: Mean po circulating concentration
  concentration at 0.08 h: 85 nM
[8]; male, C57/BL6, mouse, plasma, po, 50 mg/kg, 0.25 h after po 50 mg/kg artemiside 5, read-out: Mean po circulating concentration
  concentration at 0.25 h: 109 nM
[8]; male, C57/BL6, mouse, plasma, po, 50 mg/kg, 0.5 h after po 50 mg/kg artemiside 5, read-out: Mean po circulating concentration
  concentration at 0.5 h: 135 nM
[8]; male, C57/BL6, mouse, plasma, po, 50 mg/kg, 1 h after po 50 mg/kg artemiside 5, read-out: Mean po circulating concentration
  concentration at 1 h: 119 nM
[8]; male, C57/BL6, mouse, plasma, po, 50 mg/kg, 3 h after po 50 mg/kg artemiside 5, read-out: Mean po circulating concentration
  concentration at 3 h: 58 nM
[8]; male, C57/BL6, mouse, plasma, po, 50 mg/kg, 5 h after po 50 mg/kg artemiside 5, read-out: Mean po circulating concentration
  concentration at 5 h: 12 nM
[8]; male, C57/BL6, mouse, plasma, po, 50 mg/kg, 7 h after po 50 mg/kg artemiside 5, read-out: Mean po circulating concentration
  concentration at 7 h: 6 nM
[8]; male, C57/BL6, mouse, plasma, po, 50 mg/kg, po 50 mg/kg, parent drug
  half-life: 1.4 ± 0.04 h
[8]; male, C57/BL6, mouse, plasma, iv 5 mg/kg
  clearance: 58.3 mL/min/kg
[8]; [9]
  AUC(0-inf): 3.9 ± 0.4 µM·h
  AUC(0-t): 3.8 ± 0.5 µM·h
[8]; male, C57/BL6, mouse, plasma, iv 5 mg/kg, parent drug, 0-last up to 7 h
  MRT last: 1 ± 0.1 h
[8]; male, C57/BL6, mouse, plasma, iv 5 mg/kg, read-out: Vss
  Vd: 4.1 ± 0.5 L/kg
[8]; [10]
  Cmax: 130 ± 10 nM
  MRT last: 1.9 ± 0.1 h
  AUC(0-t): 0.36 ± 0.06 µM·h
[8]; po 50 mg/kg
  MAT (mean absorption time = MRTpo–MRTiv): 0.92 ± 0.20 h
[8]; po group, parent drug
  quantifiable/detectable in plasma up to: up to 7 h
